Literature values as cited in patent publication US20050031690A1, “Stabilized prostaglandin formulation” (Pharmacia Corporation, priority 2003, published 2005).

Settings: solution state

## CCCCC[C@H](O)/C=C/[C@H]1[C@H](O)CC(=O)[C@@H]1CCCCCCC(=O)O [prostaglandin E1]
  pH region of relative stability: 3-4
